Assay results published in patent US20160120915A1, “METHODS FOR MANIPULATING IMMUNE RESPONSES BY ALTERING MICROBIOTA” (NEW YORK UNIVERSITY, priority 2013, published 2016).
Counter-ions that a name gives are not always drawn.

Experiments:
[1] = system: small intestinal lamina propria T-helper cells; test: NOD: flow cytometry of Treg and Th17 cells in spleen and SI-LP; assay type: in vivo, NOD mice; conditions: for percent of SI-LP Th17 (CD4+RORγT+) cells / percent of SI-LP Treg (CD4+ FOXP3+) cells: 6-week old male NOD mice, vs controls
Description: After euthanasia of the mice by CO2 asphyxiation followed by cervical dislocation, the small intestines were dissected and immediately placed in cold calcium and magnesium-free DPBS, followed by removal of the mesenteric fat and Peyer's patches. The intestines were opened longitudinally and contents were removed by washing thoroughly with cold DPBS. The intestines were then cut into 2 cm pieces and treated with 10 ml 1 mM DTT/PBS, shaken at RT for 10 minutes to remove contaminating intraepithelial lymphocytes. Subsequently, the intestinal tissue was treated two times with 30 mM EDTA and 10 mM HEPES in PBS to remove epithelial cells. To isolate lamina propria lymphocytes, intestinal tissue was digested for 1.5 hours at 37° C. in digestion mix (0.5 mg/ml Collagenase/Dispase (Roche), 150 μg /ml DNase 1 (Sigma) in complete RPMI. Cells were passed through a 100 μm diameter nylon mesh filter (BD Bioscience). For further purification of leukocytes, intestinal cell suspensions were resuspended in 40% Percoll, under-layered with 80% Percoll (GE Healthcare Life Sciences) and centrifuged at 2,200 rpm for 25 minutes at room temperature. The leukocytes were collected at the interphase of the 40% 80% discontinuous Percoll gradient, then washed and re-suspended in DPBS for staining.
Cells were incubated with blue Live/DEAD fixable dye (Invitrogen) for 10 minutes at 4° C. to identify live cells. Intestinal leukocytes were phenotyped using the following antibodies: CD3-APC-Cy™7 (BD Biosciences), CD4− PE-Alexa Fluor 610 (Invitrogen), CD8− V500 (BD Biosciences), RORγt-PE (eBioscience), Foxp3-PE-Cy7 (eBioscience). Cells were first incubated with surface antibodies (each at 1:50 in FACS buffer) along with FC block (Anti-Mouse CD16/CD32, eBioscience) at 1:200 for 30 minutes at 4° C. Then the cells were fixed and permeabilized with Fix/Perm (eBioscience) and subsequently incubated with the nuclear antibodies in perm/wash buffer for 30 minutes at 4° C. (eBioscience).
All cells were acquired on a LSRII (BD Biosciences) and analyzed using FlowJo software (version 9.3.2; Tree Star Inc.).
Flow cytometry was performed on splenic and SI-LP cells from 6-week old male and female NOD mice. CD3 and CD4 surface stains and a live/dead stain were used to gate on live T-helper cells. Nuclear staining for FOXP3 and RORγT was performed to identify Treg and Th17 cells, respectively. By qPCR, SFB was below detectable limits in fecal specimens collected at 3 weeks and 6 weeks of age from all of the mice used in the above analysis. The range for SFB qPCR assay was from 10^2 to 10^6 copies of SFB. […] PAT decreased the percent of SI-LP Treg and Th17 cells in male, but not female NOD mice. C=controls, S=STAT, P=PAT. Statistical analysis was performed on each tissue separately, using the Kruskal-Wallis test followed by the Dunn's multiple comparison test, ** p≦0.01. […] This work provides evidence that PAT changes T-cell populations in the NOD mice that are developing T1D and insulitis earlier.

ileal tissue = test: TimeSTAT: expression of immunological markers in ileal tissue by qPCR; assay type: in vivo, C57BL/6J mice; conditions: 20 weeks of age
Excerpt: C57BL/6J (Jackson Labs, Bar Harbor, Me.) mice either received no antibiotics (control, females n=5, males n=5) or continuous STAT penicillin starting at birth (STATb, females n=4, males n=5), or at weaning at 4 weeks (STATw, females n=5, males n=5). Mice were weaned at 4 weeks onto normal chow (13.2% fat, 5053 PicoLab Rodent Diet 20, LabDiet, Brentwood, Mo.).
Both STATw and STATb remained on lifelong STAT after initial exposure. Mice were sacrificed at 20 weeks of age. The terminal[1 cm] ileum without Peyer's Patches [TI-] was collected for gene expression analysis by qPCR.
Total RNA was extracted from mouse tissues using the RNeasy Mini Kit (Qiagen), according to the manufacturer's instructions. Total RNA was reverse transcribed to cDNA using the Verso™ cDNA Synthesis Kit (Thermo Scientific). To generate standards for expression analysis of each target gene, the cDNA region of interest was PCR-amplified and the PCR product was cloned into pGEM-T easy (Promega). qPCR was performed with LightCycler 480 SYBR Green I Master mix (Roche) and run in a LightCycler 480 system (Roche). Target mRNA was normalized to GAPDH mRNA as an internal control in each sample.
Both STATw and STATb remained on lifelong STAT after initial exposure. Expression of immunological markers in ileal tissue was measured by qPCP at 20 weeks of age in both female and male mice.

Row | Compound | percent of SI-LP Th17 (CD4+RORγT+) cells [1] | percent of SI-LP Treg (CD4+ FOXP3+) cells [1] | ileal expression of Th17 transcription factor (RORγT) (ileal tissue; female mice, STAT from weaning or birth vs control) | ileal expression of J-chain (ileal tissue; female mice, STAT vs control) | ileal expression of Reg3γ (ileal tissue; female mice, STAT vs control) | ileal expression of SAA1/SAA2 (ileal tissue; female mice, STAT vs control) | ileal expression of SSA3 (ileal tissue; female mice, STAT vs control) | ileal expression of cytokine (ileal tissue; female mice, STAT vs control) | ileal expression of cytokine TH-17A (ileal tissue; female mice, STAT vs control) | ileal expression of defensin β1 (Defb1) (ileal tissue; female mice, STAT vs control) | ileal expression of polymeric Ig receptor (pIgR) (ileal tissue; female mice, STAT vs control) | ileal expression of J-chain (ileal tissue; male mice, STAT vs control) | ileal expression of RORγt (ileal tissue; male mice, STAT vs control) | ileal expression of pIgR (ileal tissue; male mice, STAT vs control) | decrease of percent of SI-LP Treg and Th17 cells ([1]; 6-week old female NOD mice)
1 | CC1(C)S[C@@H]2[C@H](NC(=O)COc3ccccc3)C(=O)N2[C@H]1C(=O)[O-].[K+] [STAT, penicillin VK] | intermediate | intermediate | significant reductions | significant reductions | significant reductions | significant reductions | significant reductions | significant reductions | significant reductions | significant reductions | significant reductions | lacked differences | lacked differences | lacked differences | 
2 | CC[C@H]1OC(=O)C[C@@H](O)[C@H](C)[C@@H](O[C@@H]2O[C@H](C)[C@@H](O[C@H]3C[C@@](C)(O)[C@@H](O)[C@H](C)O3)[C@H](N(C)C)[C@H]2O)[C@@H](CC=O)C[C@@H](C)C(=O)/C=C/C(C)=C/[C@@H]1CO[C@@H]1O[C@H](C)[C@@H](O)[C@@H](OC)[C@H]1OC [Tylosin, Tylosin tartrate] | decreased | decreased |  |  |  |  |  |  |  |  |  |  |  |  | not
